From US5112852A, “Allenyl amines” (Merrell Dow Pharmaceuticals Inc., priority 1989, dated 1992)

Key:
[1] = tested on: dopamine-β-hydroxylase (DBH); test: DBH inhibitory activity in vitro (time-dependent inactivation; oxygen uptake with tyramine substrate); format: biochemical; conditions: 1 mM, pH 4.5 to 5.5, preferably pH 5.0, 20-40° C., preferably 37° C., spread +/-1.1
Description: The DBH inhibitory properties of the compounds of this invention can readily be determined by standard and well known procedures such as those procedures set forth in U.S. Pat. No. 4,415,591. […] The test compound is added at the desired concentration, and the system is incubated. At different time intervals aliquots are taken and DBH activity is measured using tyramine as the substrate. The reaction is followed by measuring oxygen uptake using a polarographic electrode and an oxygen monitor by the method of S. May, et al., J. Biol. Chem. 256, 2258 (1981).

hypertensive rats = test: Antihypertensive activity in vivo, conscious hypertensive rats, mean blood pressure; conditions: 50 mg/kg (ip)
Description: The ability of compounds of this invention to lower blood pressure can be determined in vivo using hypertensive rats according to standard and well known procedures. The test compound is administered intraperitoneally (ip) to conscious rats and the blood pressure monitored continuously. Decreased mean blood pressure over time was observed when a compound of this invention was tested by the above described procedure, as indicated in Table II.

C=C=C(CN)c1cccs1 [β-ethenylidene-2-thiopheneethanamine, β-Ethenylidene-2-thiopheneethanamine]
t 1/2 (time required for 50% inhibition) [1]: 1.3 h
Maximum % Change in mean Blood Pressure (hypertensive rats; decrease per text): 15.6%
Duration (hypertensive rats; duration of blood pressure change): 10 h
